Measurements reported in paper PMC11272978, “Exploring the central region of amylin and its analogs aggregation: the influence of metal ions and residue substitutions” (Frontiers in Chemistry, 2024).
Entries after “also recorded” stand apart in the source; their conditions may differ. No end group written: not given here.

Key:
[1] = Atomic force microscopy (AFM) of fibrils; format: physicochemical
Method: AFM imaging was conducted in a 256-scanning line at a 1 Hz scanning rate by using Bruker’s Nano Dimension Icon (Bruker Nano Inc., Germany). In this procedure, 200–300 μM hIAPP-F and Pramlintide-M were incubated with and without selected metal ions at 25°C for 24 h. All the samples were dissolved in 50 mM phosphate buffer (pH 7.4). The height of peptide aggregates was obtained from its section tool through Nano Scope Analysis 1.5, and the line position with average effects in the images was selected, except peptides alone in fibril form.

[2] = system: HeLa cells; assay: CCK-8 cytotoxicity assay; format: cell-based, human
Method: The cytotoxicity of the different peptides (rIAPP-F, hIAPP-F, Pramlintide-F, hIAPP-M, rIAPP-M, Pramlintide-M, and hIAPP) was tested using CCK-8 assay according to the manufacturer’s protocol. Briefly, cervical carcinoma cells (HeLa) were seeded into 96 well plates 8 × 10^3 cells/well in 100 µL DMEM culture medium with 10% FBS and 1% Penicillin-Streptomycin and incubated in a 5% CO2 incubator at 37°C overnight. After that, the cells were incubated with the different peptides prepared in deionized water at concentrations (200, 400, 600, and 800 μg/mL) for 24 h. In addition, the cytotoxicity of hIAPP-F and Pramlintide-M prepared in 0.5 mg/mL Cu(NO3)2 and ZnCl2 solutions at the same concentrations (200, 400, 600, and 800 μg/mL) was also tested. Cells without any treatment were used as a control, and all the conditions were done in triplicates. After 24 h, the media was discarded from the plate, and cells were washed with PBS. Then, 10 µL of CCK-8 and 90 µL of fresh DMEM media were added to each well and incubated for 4 h. The absorbance was measured at OD = […] using a microplate spectrophotometer (BioRad-xMark Microplate Absorbance Spectrophotometer). The ratio of the absorbance at 570/605 was calculated, and the average absorbance value of wells without cells was considered as blank and subtracted from all wells to cancel the background noise. The cells without any treatment were used as a control, and their mean value was considered 100% viable. The other treated cells’ viability was calculated using the formula: Cells viability % = (Corrected Mean Absorbance of treated cells)/(Corrected Mean Absorbance of control) ×100.

[3] = Thioflavin-T (ThT) aggregation assay; format: physicochemical; conditions: 40 μM peptide, 20 μM ThT, 50 mM phosphate buffer pH 7.4, 25°C; for ThT fluorescence intensity (aggregation), peptide alone: ex 485/20, em 528/20 nm, read each 5 min; for ThT fluorescence intensity (aggregation) with Cu(II): Cu(II) (Cu(NO3)2) 1:1; for ThT fluorescence intensity (aggregation) with Zn(II): Zn(II) (ZnCl2) 1:1
Method: (§1) Preparation of IAPP fragments solutions and thioflavin-T aggregation assays were performed as described earlier ([Alghrably et al., 2020]). In brief, IAPP fragments were dissolved in 50 mM phosphate buffer to concentrations of 1 mM. Stock solutions were diluted to the desired concentrations, and samples were used fresh each time. It is important to mention that due to the observation of turbidity after dissolving hIAPP-F and Pramlintide-M, both peptides were sonicated for 25 min. All of the aggregation reactions were conducted at 25°C with 40 μM IAPP fragments/mutants (final concentration) in 50 mM phosphate buffer (pH 7.4), and 20 μM thioflavin T in a final volume of 200 μL in each of the 96-well flat-bottom black plate (Corning 3915). We tested the aggregation of each IAPP fragment/mutants alone and with the addition of two metal ions Cu(II) and Zn(II). The metal ions were added to the IAPP fragments in 1:1 ratio. The plate was sealed with transparent film (Duck Brand Crystal Clear Tape, Avon, OH). Thioflavin T fluorescence emission at 528/20 nm (excitation at 485/20) was monitored on a Cytation 5 Multi-Mode Microplate. The measurements were collected by top reading each 5 min after a 3 s shake with an extended gain.

[4] = 1D 1H NMR signal intensity over time (aggregation); format: physicochemical; conditions: 310 K, over 44 hours; for NMR signal intensity over time (signal loss = aggregation), peptide alone: D2O with 20 mM phosphate buffer pH 7.4, 1.5 mM peptide (100 μM for hIAPP-F and Pramlintide-M)
Method: All peptides (except hIAPP-F and Pramlintide-M) were dissolved in 99.8% deuterium oxide containing 20 mM of phosphate buffer (pH 7.4). All samples contained 1.5 mM peptide concentration in 600 μL of sample volume except for hIAPP-F and Pramlintide-M, for which the final concentration was 100 μM (both peptides have a high tendency to aggregate at room temperature). The samples’ pH was manually adjusted to 7.4 with 0.1 M NaOD stock solution in 100% D2O. These samples were used for the ^1H and ^13C resonances assignment based on 2D spectra: ^1H-^13C HSQC ([Bodenhausen and Ruben, 1980]) tuned for the aliphatic region, HSQC-TOCSY ([Koz´min´ski and Koz´min´ski, 1999]), ^1H-^1H TOCSY ([Braunschweiler and Ernst, 1983]) mixing time 20 ms and 80 ms, ^1H-^1H ROESY ([Davis, 1985]) mixing time 300 ms and 500 ms. During the hIAPP-F and Pramlintide-M sample preparation, a temperature of 90°C was used to dissolve the peptides. After that, both samples were sonicated during the cooling down process to obtain a homogeneous solution. Spectra were measured immediately after sample preparation. The samples with the addition of metal ions were prepared with the same method as the samples of high tendency aggregation peptides hIAPP-F and Pramlintide-M.
All experiments were performed at a temperature of 310 K. The NMR spectra were acquired on spectrometers of 950, 800, and 700 MHz Bruker Avance NEO equipped with cryogenic TCI probes: • rIAPP-F, hIAPP-F, Pramlintide-M: 700 MHz, ^1H frequency = 700.21 MHz, ^13C frequency = 176.07 MHz • rIAPP-M: 800 MHz, ^1H frequency = 800.18 MHz, ^13C frequency = 201.21 MHz • Pramlintide-F, hIAPP-M: 950 MHz, ^1H frequency = 950.30 MHz, ^13C frequency = 238.96 MHz

[5] = Turbidity on dissolving the peptide; format: physicochemical; conditions: dissolved in 50 mM phosphate buffer to 1 mM; observation; peptides then sonicated for 25 min
Method: as §1

[6] = 200 µM peptide alone, phosphate buffer pH 7.4, 25°C, 24 h, cross-section profile
[7] = 200 µM peptide, phosphate buffer pH 7.4, 25°C, 24 h
[8] = peptide:Cu(II) 1:1, 200 µM, phosphate buffer pH 7.4, 24 h

Molecule	fibril morphology (AFM), peptide alone [1, 7]	ThT fluorescence intensity (aggregation), peptide alone [3]	ThT fluorescence intensity (aggregation) with Cu(II) [3]	ThT fluorescence intensity (aggregation) with Zn(II) [3]	NMR signal intensity over time (signal loss = aggregation), peptide alone [4]	also measured
CC[C@H](C)[C@H](NC(=O)[C@H](C)NC(=O)CNC(=O)[C@H](Cc1ccccc1)NC(=O)[C@H](CC(N)=O)NC(=O)[C@H](CC(N)=O)NC(=O)[C@H](CO)NC(=O)[C@H](CO)NC(=O)[C@H](Cc1c[nH]cn1)NC(=O)[C@@H](NC(=O)[C@H](CC(C)C)NC(=O)[C@H](Cc1ccccc1)NC(=O)[C@H](CC(N)=O)NC(=O)[C@H](C)NC(=O)[C@H](CC(C)C)NC(=O)[C@H](CCCNC(=N)N)NC(=O)[C@H](CCC(N)=O)NC(=O)[C@@H](NC(=O)[C@H](C)NC(=O)[C@@H]1CSSC[C@H](NC(=O)[C@@H](N)CCCCN)C(=O)N[C@@H](CC(N)=O)C(=O)N[C@@H]([C@@H](C)O)C(=O)N[C@@H](C)C(=O)N[C@@H]([C@@H](C)O)C(=O)N1)[C@@H](C)O)C(C)C)C(=O)N[C@@H](CC(C)C)C(=O)N[C@@H](CO)C(=O)N[C@@H](CO)C(=O)N[C@H](C(=O)N[C@@H](CC(N)=O)C(=O)N[C@H](C(=O)NCC(=O)N[C@@H](CO)C(=O)N[C@@H](CC(N)=O)C(=O)N[C@H](C(=O)N[C@@H](Cc1ccc(O)cc1)C(N)=O)[C@@H](C)O)C(C)C)[C@@H](C)O [hIAPP]	relatively short worm-like fibrils	–	–	–	–	diameter of helical fibrils (AFM) [1, 6]: 5–6 nm; diameter of ribbon fibrils (AFM) [1, 6]: around 2 nm; fibril length (AFM), some fibrils, peptide alone ([1]; 200 µM peptide alone, phosphate buffer pH 7.4, 24 h, fibrils vary in length): > 2 µm; average fibril length (AFM) with Cu(II) [1, 8]: less than 2 µm; fibril diameter (AFM) with Cu(II) [1, 8]: 2–3 nm; fibril morphology (AFM) with Cu(II) [1, 8]: unique looping structure; effect on cell viability, peptide alone ([2]; HeLa cells, 200, 400, 600 and 800 μg/mL, 24 h, CCK-8, n = 3): highest level of toxicity; cell viability at 400 μg/mL ([2]; HeLa cells, 24 h, CCK-8, peptide in deionized water, triplicates): 0%
SNNFGAILPP [hIAPP-M, custom-designed mutated fragment of human amylin, last two serins mutated with prolines]	–	no increase in fluorescence intensity; also recorded: did not show any increase in the fluorescence intensity	neither metal ions Cu(II) nor Zn(II) have any influence on the aggregation rate	neither metal ions Cu(II) nor Zn(II) have any influence on the aggregation rate	no signal loss was observed over time	–
SNNFGAILSS [hIAPP-F]	twisted fibril	–	completely inhibited the aggregation	increased the fluorescence intensity	decreased over time	time to reach saturation phase (ThT), peptide alone [3]: ~2.5 h; time to reach saturation phase (ThT) with Zn(II) ([3]; Zn(II) 1:1): ~2.5 h; fibril diameter (AFM), peptide alone ([1]; 200 µM peptide, phosphate buffer pH 7.4, 25°C, 24 h, profile analysis): approximately 6 nm; fibril diameter (AFM) with Zn(II) ([1]; peptide:Zn 1:1, 200 µM, phosphate buffer pH 7.4, 24 h): same diameter as the matured helical-structured fibrils; NMR signal intensity deterioration with Zn(II) ([4]; 100 μM peptide, pH 7.4, with Zn(II)): occurred faster in the presence of Zn(II); cell viability at 800 μg/mL ([2]; HeLa cells, 24 h, CCK-8, peptide in deionized water, highest concentration tested, triplicates): 60%; cell viability, peptide-Cu(II) complex ([2]; HeLa cells, peptide 200-800 μg/mL prepared in 0.5 mg/mL Cu(NO3)2, 24 h, CCK-8, n = 3): high cell viability; cell viability / proliferation, peptide with Zn(II) ([2]; HeLa cells, peptide 200-800 μg/mL prepared in 0.5 mg/mL ZnCl2, 24 h, CCK-8, n = 3): high cell proliferation rate; turbidity after dissolving [5]: turbidity
SNNFGPILPP [Pramlintide-F, fragment derived from pramlintide, central region]	–	no increase in fluorescence intensity; also recorded: did not show any increase in the fluorescence intensity	neither metal ions Cu(II) nor Zn(II) have any influence on the aggregation rate	neither metal ions Cu(II) nor Zn(II) have any influence on the aggregation rate	no signal loss was observed over time	–
SNNLGPILPP [rIAPP-M, custom-designed mutated fragment of rat amylin]	–	no increase in fluorescence intensity; also recorded: did not show any increase in the fluorescence intensity	neither metal ions Cu(II) nor Zn(II) have any influence on the aggregation rate	neither metal ions Cu(II) nor Zn(II) have any influence on the aggregation rate	no signal loss was observed over time	–
SNNLGPVLPP [rIAPP-F, fragment derived from rat amylin, central region]	–	did not show any increase in the fluorescence intensity	neither metal ions Cu(II) nor Zn(II) have any influence on the aggregation rate	neither metal ions Cu(II) nor Zn(II) have any influence on the aggregation rate	no signal loss was observed over time	–
